Results from patent US20220062166A1, “Self-Gelling Solutions for Administration of Therapeutics to the Inner Ear” (Spiral Therapeutics, Inc., priority 2019, published 2022).

How the values were obtained:
[1] = tested on: HEI-OC1 cells; test: Release of mitochondrial cyt c in HEI-OC1 cells with CisPt (flow cytometry); type: cell-based; conditions: HEI-OC1 cells; after CisPt alone or pre-incubated with LPT99
Description: Flow cytometry was also used to characterize the effect of LPT99 in the release of mitochondrial cyt c in HEI-OC1 cells in vitro with CisPt prevention. Results
The effect of LPT99 on proliferation of non-apoptotic cells was studied. A549 cells were cultured in the presence of LPT99 for up to 6 days; the cell number was monitored by flow cytometry, and doubling time was calculated.

[2] = tested on: HEI-OC1 cells; test: HEI-OC1 cell viability with CisPt; type: cell-based; conditions: CisPt 0 to 5 μg/mL
[3] = GLP auditory safety study in rats after single TT administration
Description: The study consisted of 10 groups of rats: 6 groups for toxicology (Groups 1 to 6, 20 males and 20 females per group), and 4 groups for toxicokinetics (Groups 7 to 10, 6 males and 6 females per group).
All animals were assessed weekly for body weights and qualitative food consumption. In addition, otoscopic evaluation of the dosing sites (tympanic membrane, Groups 1 to 6) and ABR testing for hearing function were performed at predosing; and on Days 1, 7, and/or 14. Animals in the toxicology groups (Groups 1 to 6) were sacrificed on Day 1 (10 males and 10 females per group) and Day 14 (the remaining 10 males and 10 females per group). At necropsy, terminal blood samples were tested for hematology, serum chemistry, and coagulation parameters. Gross observations were recorded, and selected organs were weighed. One ear per animal in Groups 1 to 5 was collected and processed for cytocochleogram assessment.

Compound | release of mitochondrial cyt c [1] | HEI-OC1 cell viability IC50 of CisPt [2] [µg/mL] | weight-normalized heart weights ([3]; Day 14, males, 400 mg/mL gentamicin vs saline controls, p≥0.05) | otoscopic scores (erythema, edema, wounds) of tympanic membranes ([3]; Days 1, 7, 14 vs control)
N.N.[Cl][Pt][Cl] [CisPt, cisplatin, reference compound] | 28% ±6.6% | 4.47 ± 1.94 | – | –
gentamicin [reference compound] | – | – | increased weight-normalized heart weights | increases in otoscopic scores
